The text below walks through data of patent US20150004134A1, “TREATMENT OF CANCER WITH HETEROCYCLIC INHIBITORS OF GLUTAMINASE” (Calithera Biosciences, Inc., priority 2012, published 2015).

pIC50: −log10 of the molar value. Where two headings read alike, the source gives them in different places.

The test system of the assay is P493-6 (myc "on") cells. Description: Cell Proliferation Assay. In kind it is cell-based. An outline of the steps:
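Read-out: either Cell Titer Glo or Guava Viacount flow analysis after 72 h compound treatment of myc-on P493-6 cells (10,000/well, RPMI with 10% FBS) at 37 °C. DMSO held at 0.5% final.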

Where [1] appears, read: P493-6, 72 h, read-out: Cell prolif P493 72 h IC50, P493 cells, 72 h.
Setting [2] is: P493-6, 72 h, read-out: Cell prolif P493 72 h IC50, P493-6 cells, 72 h.

The term pIC50 denotes the negative decadic logarithm of the IC50, by convention in mol/L. In the case of `N[C@@H](C(=O)Nc1nnc(CCCCc2nnc(NC(=O)[C@H](N)c3ccccc3)s2)s1)c1ccccc1` [Compound 186], the pIC50 under setting [1] was 4.89. Take `O=C(Nc1nnc(CCSCCc2nnc(NC(=O)c3ccccc3)s2)s1)c1ccccc1` [Compound 2]: the pIC50 (P493-6, read-out: Cell prolif P493 72 h IC50, P493 cells, 72 h) was 6.20. As for `CC(C)(C)OC(=O)NCc1cccc(CC(=O)Nc2ccc(CCCCc3nnc(NC(=O)Cc4ccccc4)s3)nn2)c1` [Compound 367], under setting [1], the pIC50 is 8.22. Consider `CN(C)C(=O)Cc1cccc(CC(=O)Nc2nnc(CCCCc3ccc(NC(=O)Cc4ccccc4)nn3)s2)c1` [Compound 472], for which the pIC50 under setting [2] is 7.62. The same measure, in the same setting: for `CC(C)(C)OC(=O)NCc1cccc(CC(=O)Nc2nnc(CCCCc3ccc(NC(=O)C(O)c4cccc(Cl)c4)nn3)s2)c1` (stereo not shown) [Compound 422] the value was 8.22; for `COc1cc(CC(=O)Nc2ccc(CCCCc3nnc(NC(=O)Cc4ccccc4)s3)nn2)ccc1F` [Compound 537], 7.12. For `O=C(Nc1nnc(CCCCc2nnc(NC(=O)[C@H](O)c3ccccc3)s2)s1)[C@H](O)c1ccccc1` [Compound 80], the negative logarithm of the IC50 (pIC50) under setting [1] was 5.89. The same measure, in the same setting: for `O=C(Cc1ccccc1)Nc1nnc(CCCCc2nnc(NC(=O)[C@@H]3CCCC[C@H]3C(O)c3ccccc3)s2)s1` (stereo partly shown) [Compound 304] the value was 5.31. Turning to `Cc1ccccc1C(C)C(=O)Nc1nnc(CCSCCc2nnc(NC(=O)C(C)c3ccccc3C)s2)s1` (stereo not shown) [Compound 262], the negative logarithm of the IC50 (pIC50) under setting [1] is 5.51. Regarding `O=C(Nc1nnc(CCCCc2nnc(NC(=O)C(O)c3cccc(Br)c3)s2)s1)C(O)c1cccc(Br)c1` (stereo not shown) [Compound 288], under setting [1], the negative logarithm of the IC50 (pIC50) was 7.55. The same measure, in the same setting: in the case of `CC(C(=O)Nc1nnc(CCSCCc2nnc(NC(=O)C(C)c3ccccc3Cl)s2)s1)c1ccccc1Cl` (stereo not shown) [Compound 261] it was 5.59; in that of `COCCC(=O)Nc1nnc(CCCCc2nnc(NC(=O)CCOC)s2)s1` [Compound 100], 5.05. For `CC(C(=O)Nc1nnc(CCCCc2ccc(NC(=O)Cc3cccc(CNC(=O)CC(O)C(F)(F)F)c3)nn2)s1)c1ccccc1` (stereo not shown) [Compound 606], under setting [2], the pIC50 was 7.35. `CN(Cc1cccc(CC(=O)Nc2nnc(CCCCc3nnc(NC(=O)Cc4ccccc4)s3)s2)c1)C(=O)OC(C)(C)C` [Compound 391]: the pIC50 under setting [1] is 7.57. Regarding `O=C(Nc1nnc(CCSCCc2nnc(NC(=O)C(c3ccccc3)N3CCNCC3)s2)s1)C(c1ccccc1)N1CCNCC1` (stereo not shown) [Compound 79], the negative-log IC50 (pIC50) under setting [1] was 5.70. The same measure, in the same setting: in the case of `CC(=O)NCC(C(=O)Nc1nnc(CCCCc2nnc(NC(=O)C(CNC(C)=O)c3ccccc3)s2)s1)c1ccccc1` (stereo not shown) [Compound 266] it was less than 4.30; in that of `CC(C)[C@H](NC(=O)OC(C)(C)C)C(=O)Nc1nnc(CCSCCc2nnc(NC(=O)Cc3ccccc3)s2)s1` [Compound 33], 5.28; in that of `O=C(Cc1ccccc1)Nc1nnc(CCCCc2nnc(NC(=O)Cc3ccccc3CO)s2)s1` [Compound 333], 5.80. Consider `N#Cc1ccc(CC(=O)Nc2nnc(CCSCCc3nnc(NC(=O)Cc4ccc(C#N)cc4)s3)s2)cc1` [Compound 216], for which the pIC50 under setting [1] was less than 4.30. Turning to `COc1cccc(CC(=O)Nc2ccc(CCCCc3nnc(NC(=O)C(O)c4cccc(Cl)c4)s3)nn2)c1` (stereo not shown) [Compound 467], the pIC50 under setting [2] is 7.33. With `Nc1nnc(CCCCc2ccc(NC(=O)Cc3cccc(OC(F)(F)F)c3)nn2)s1` [Compound 657, N-(6-(4-(5-amino-1,3,4-thiadiazol-2-yl)butyl)pyridazin-3-yl)-2-(3-(trifluoromethoxy)phenyl)acetamide], the pIC50 (read-out: Cell prolif P493 72 h IC50, P493-6 cells, 72 h) was 5.82. As to `O=C(Cc1ccco1)Nc1nnc(CCSCCc2nnc(NC(=O)Cc3ccco3)s2)s1` [Compound 82], the negative-log IC50 (pIC50) under setting [1] was 5.89. Same read-out and setting: for `O=C(Cc1cccc(OCCO)c1)Nc1nnc(CCSCCc2nnc(NC(=O)Cc3cccc(OCCO)c3)s2)s1` [Compound 236] the value was 5.85.

With `O=C(Nc1nnc(CCCCc2nnc(NC(=O)C3CC(O)c4ccccc43)s2)s1)C1CC(O)c2ccccc21` (stereo not shown) [Compound 94], the pIC50 under setting [1] is 6.33. For the compound `O=C(Cc1ccccc1)Nc1ccc(CCCCc2nnc(NC(=O)Cc3cccc(CNC(=O)C(F)(F)F)c3)s2)nn1` [Compound 458], the pIC50 under setting [2] was 7.89.

For the compound `O=C(Cc1ccccc1)Nc1nnc(CCSCCc2nnc(N(COC(=O)OCCCN3CCOCC3)C(=O)Cc3ccccc3)s2)s1` [Compound 27], under setting [1], the pIC50 was 6.33. Still for that read-out and setting: in the case of `O=C(Nc1nnc(CCCCc2nnc(NC(=O)C(O)Cc3ccccc3)s2)s1)C(O)Cc1ccccc1` (stereo not shown) [Compound 69] it was 6.48. With `O=C(Cc1cccc(Cl)c1)Nc1ccc(CCCCc2nnc(NC(=O)C(O)c3cccc(Cl)c3)s2)nn1` (stereo not shown) [Compound 448], the pIC50 under setting [2] is 7.29. For the compound `O=C(COc1ccccc1)Nc1nnc(CCCCc2nnc(NC(=O)COc3ccccc3)s2)s1` [Compound 43], under setting [1], the negative logarithm of the IC50 (pIC50) was less than 4.30. With `Cc1ccccc1CC(=O)Nc1nnc(CCCCc2ccc(NC(=O)Cc3ccccc3F)nn2)s1` [Compound 536], the pIC50 under setting [2] was 7.15. For the compound `Nc1ccc(CCCCc2nnc(NC(=O)Cc3ccccc3)s2)nn1` [Compound 348, N-(5-(4-(6-aminopyridazin-3-yl)butyl)-1,3,4-thiadiazol-2-yl)-2-phenylacetamide], the negative logarithm of the IC50 (pIC50) under setting [1] was 5.77. Take `O=C(Nc1nnc(CCSCCc2nnc(NC(=O)C3CCc4ccccc4C3)s2)s1)C1CCc2ccccc2C1` (stereo not shown) [Compound 37]: under setting [1], the pIC50 was less than 4.30. `O=C(Cc1ccccc1)Nc1ccc(CCCCc2nnc(NC(=O)Cc3cccc(OCCO)c3)s2)nn1` [Compound 427]: the pIC50 under setting [2] is 7.57. For `CC(=O)Nc1nnc(CCSCCc2nnc(NC(=O)Cc3ccccc3)s2)s1` [Compound 25], the pIC50 under setting [1] was 5.82.

With `O=C(Cc1ccccc1)Nc1ccc(CCCCc2nnc(NC(=O)Cc3cccc(CNC(=O)c4ccccc4)c3)s2)nn1` [Compound 432], the pIC50 under setting [2] is 8.40. Regarding `CC(C)(C)OC(=O)N1CCN(C(C(=O)Nc2nnc(CCSCCc3nnc(NC(=O)Cc4ccccc4)s3)s2)c2ccccc2)CC1` (stereo not shown) [Compound 70], under setting [1], the pIC50 is 5.47.

As to `CC(C)(C)OC(=O)NCc1cccc(CC(=O)Nc2nnc(CCCCc3ccc(NC(=O)C4(C)COC(C)(C)OC4)nn3)s2)c1` [Compound 529], under setting [2], the pIC50 was 6.80.

For `Nc1nnc(CCCCc2ccc(NC(=O)Cc3ccccc3)nn2)s1` [Compound 342], the negative logarithm of the IC50 (pIC50) under setting [1] is 5.57. For the compound `O=C(CN1CCOCC1)Nc1nnc(CCSCCc2nnc(NC(=O)CN3CCOCC3)s2)s1` [Compound 12], the pIC50 under setting [1] was 4.44. Turning to `Nc1ccc(CC(=O)Nc2nnc(CCCCc3nnc(NC(=O)Cc4ccc(N)cc4)s3)s2)cc1` [Compound 196], the negative logarithm of the IC50 (pIC50) under setting [1] was 6.21. Take `O=C(CC1CCCC1)Nc1nnc(CCSCCc2nnc(NC(=O)CC3CCCC3)s2)s1` [Compound 58]: under setting [1], the pIC50 was 5.43.

Turning to `N[C@@H](C(=O)Nc1nnc(CCSCCc2nnc(NC(=O)[C@H](N)c3ccccc3)s2)s1)c1ccccc1` [Compound 47], under setting [1], the negative-log IC50 (pIC50) was 4.46. As to `CC(C)[C@H](N)C(=O)OCC(C(=O)Nc1nnc(CCCCc2nnc(NC(=O)C(COC(=O)[C@@H](N)C(C)C)c3ccccc3)s2)s1)c1ccccc1` (stereo partly shown) [Compound 291], the pIC50 under setting [1] is 5.74. On to `O=C(Cc1ccccc1)Nc1ccc(CCCCc2nnc(NC(=O)C(OC(=O)CCN3CCOCC3)c3ccccc3)s2)nn1` (stereo not shown) [Compound 334], for which the pIC50 under setting [1] was 7.52.

With `CC(C(=O)Nc1nnc(CCCCc2nnc(NC(=O)C(C)c3ccccc3Cl)s2)s1)c1ccccc1Cl` (stereo not shown) [Compound 274], the negative-log IC50 (pIC50) under setting [1] is 6.17.

Consider `O=C(Cc1cccc2[nH]ccc12)Nc1nnc(CCCCc2nnc(NC(=O)Cc3cccc4[nH]ccc34)s2)s1` [Compound 323], for which, under setting [1], the negative-log IC50 (pIC50) is 6.70. Regarding `O=C(Cc1ccccc1CO)Nc1nnc(CCCCc2nnc(NC(=O)Cc3ccccc3CO)s2)s1` [Compound 208], under setting [1], the negative-log IC50 (pIC50) is 5.05.

With `CC(C(=O)Nc1nnc(CCCCc2ccc(NC(=O)Cc3cccc(CNC(=O)CC(C)(O)C(F)(F)F)c3)nn2)s1)c1ccccc1` (stereo not shown) [Compound 607], the negative-log IC50 (pIC50) under setting [2] is 7.33. In the case of `COC(=O)C(C(=O)Nc1nnc(CCCCc2nnc(NC(=O)C(C(=O)OC)c3ccccc3)s2)s1)c1ccccc1` (stereo not shown) [Compound 220], the pIC50 under setting [1] is 6.51. Still for that read-out and setting: for `CC(C)(C)OC(=O)Nc1ccc(CC(=O)Nc2nnc(CCCCc3nnc(NC(=O)Cc4ccc(NC(=O)OC(C)(C)C)cc4)s3)s2)cc1` [Compound 192] the value was 7.52. As to `O=C(Cc1cccs1)Nc1nnc(CCSCc2nnc(NC(=O)Cc3cccs3)s2)s1` [Compound 237], the pIC50 under setting [1] was 6.60. In the case of `CC(=O)N1Cc2cccc(CC(=O)Nc3nnc(CCCCc4ccc(NC(=O)Cc5ccccc5)nn4)s3)c2C1` [Compound 651], the negative-log IC50 (pIC50) under setting [2] is 7.43. With `NCc1cccc(CC(=O)Nc2nnc(CCCCc3ccc(NC(=O)Cc4ccccc4)nn3)s2)c1` [Compound 341], under setting [1], the pIC50 was 7.41. As for `O=C(Nc1nnc(CCCCc2nnc(NC(=O)C3(C(F)(F)F)CC3)s2)s1)C1(C(F)(F)F)CC1` [Compound 62], the pIC50 under setting [1] was 4.72. On the same count and under the same terms, in the case of `CCOc1ccccc1CC(=O)Nc1nnc(CCCCc2nnc(NC(=O)Cc3ccccc3OCC)s2)s1` [Compound 300] it was 6.80; in that of `COC(=O)c1cccc(NC(=O)Nc2nnc(CCSCCc3nnc(NC(=O)Nc4cccc(C(=O)OC)c4)s3)s2)c1` [Compound 31], 5.37. With `O=C(Cc1ccccc1)Nc1ccc(CCCCc2nnc(NC(=O)Cc3cccc(CC(=O)N4CCC(F)(F)CC4)c3)s2)nn1` [Compound 474], the pIC50 under setting [2] was 8.40. Regarding `O=C(Cc1ccccc1)Nc1nnc(CCCCc2nnc(NC(=O)C(CO)c3ccccc3)s2)s1` (stereo not shown) [Compound 316], the pIC50 under setting [1] is 7.12.

With `O=C(Nc1nnc(CCSCCc2nnc(NC(=O)[C@H](O)c3ccccc3)s2)s1)[C@H](O)c1ccccc1` [Compound 81], the pIC50 under setting [1] was 5.12. Same read-out and setting: for `CC(C(=O)Nc1nnc(CCSCCc2nnc(NC(=O)C(C)c3ccccc3)s2)s1)c1ccccc1` (stereo not shown) [Compound 19] the value was 5.77. On to `CCCCNC(=O)Cc1cccc(CC(=O)Nc2nnc(CCCCc3ccc(NC(=O)Cc4ccccc4)nn3)s2)c1` [Compound 496], for which the pIC50 under setting [2] was 7.77.
